Counter-ions that a name gives are not always drawn. Like-named read-outs stand apart in the source and are kept apart here.
What was measured:
rats [1] = test: narcosis potentiating effect (prolongation of hexabarbital sleeping period); format: in vivo; conditions: Rattus norvegicus, po, read-out: ED50 (narcosis potentiating effect)
Description: (§1) The toxicities and narcosis potentiating effects of the novel compounds having the general formula (I) were studied on rats weighing 120 to 150 g. In the toxicity tests the animals were kept under observation for 7 days. The narcosis potentiating effect was studied on animals treated with an intravenous dosage of 50 mg/kg of hexabarbital (5-/1-cyclohexenyl/-1',5-dimethylbarbituric acid), and the prolongation of sleeping period was recorded. A 150% prolongated of sleeping period in relation to the controls was regarded as positive response. The number of animals with positive responses was related to the total number of animals treated.

[2] = toxicity test on rats, observation for 7 days; conditions: rat, in vivo, po
Description: as §1

mice [3] = test: hypermotility provoked with amphetamine in mice (light interruption); format: in vivo, mouse
Description: (§2) The effect of 8-phenoxycarbonyl-3-hydrazinocarbonyl-oxy-nortropane exerted on the motilities of mice was tested according to the method of Borsy et al. (Arch. Int. Pharmacodyn. 124, 1- 2/1960/). The compound was administered orally in dosages of 20 to 80 mg/kg.
The above test method was applied also to study how 8-phenoxycarbonyl-3-hydrazinocarbonyloxy-nortropane does influence the hypermotility provoked with amphetamine (2-amino-1-phenyl-propane). Amphetamine was administered subcutaneously to mice in dosages of 7.5 mg/kg.

rats [4] = test: hypermotility provoked with amphetamine in rats (method of Janssen); format: in vivo, rat
Description: The effect of 8-phenoxycarbonyl-3-hydrazinocarbonyloxy-nortropane exerted on the hypermotility provoked with amphetamine on rats was examined by the method of Janssen (Psychopharmacologia 1, 389- 392/1960/). The stimulation of central nervous system was provoked with subcutaneous dosages of 7.5 mg/kg of amphetamine. The tests were performed on groups each consisting of 10 rats.

mice [5] = test: effect on motility of mice (method of Borsy et al.); format: in vivo, mouse; conditions: oral, 20 to 80 mg/kg
Description: as §2

[6] = 0.9% saline 20 ml/kg p.o. + amphetamine 7.5 mg/kg s.c.
[7] = 0.9% saline 20 ml/kg s.c. + compound 40 mg/kg p.o., no amphetamine
[8] = compound 40 mg/kg p.o. + amphetamine 7.5 mg/kg s.c.

## CCOC(=O)N1[C@@H]2CC[C@H]1C[C@@H](OC(=O)NN)C2 [Example 1, 8-Ethoxycarbonyl-3α-hydrazinocarbonyloxy-nortropane hydrochloride]
Rats [1]
  ED50: 0.54 mg/kg
[2]
  LD50 at 168 h: > 2000 mg/kg

## CC(=O)N(NC(=O)OC1CC2CCC(C1)N2C(=O)Oc1ccccc1)C(C)=O (stereo not drawn) [Example 14, 8-Phenoxycarbonyl-3α-(2',2'-diacetyl-hydrazinocarbonyloxy)-nortropane]
Rats [1]
  ED50: 1 mg/kg
[2]
  LD50 at 168 h: > 1200 mg/kg

## CC(N)Cc1ccccc1 (stereo not drawn) [Amphetamine, 2-amino-1-phenyl-propane, reference compound]
Mice [3]; amphetamine 7.5 mg/kg s.c. + 5% carboxymethylcellulose solution
  Light interruption (average): 583
Rats [4]; [6]
  Rearing (average): 28.6
  Triangle walked in (average): 28.5
  Washing (average): 2.7

## CN(C)CCCN1c2ccccc2Sc2ccc(Cl)cc21 [Chloropromazine, 2-chloro-10-/3-dimethylaminopropyl/-phenothiazine, reference compound]
Rats [1]; rats, hexabarbital 50 mg/kg i.v., 150% prolongation of sleeping period = positive response
  ED50: 4.7 mg/kg
[2]
  LD50 at 168 h: 210 mg/kg

## NNC(=O)O[C@H]1C[C@H]2CC[C@@H](C1)N2C(=O)Oc1ccccc1 [Example 3, 8-Phenoxycarbonyl-3α-hydrazinocarbonyloxy-nortropane]
Mice [3]; amphetamine 7.5 mg/kg s.c. + compound 40 mg/kg p.o.
  Light interruption (average): 270
Mice [3]; amphetamine 7.5 mg/kg s.c. + compound 80 mg/kg p.o.
  Light interruption (average): 175
Mice [3]; mice, both dosages examined (40 and 80 mg/kg p.o.)
  inhibition of locomotor stimulating effect of amphetamine: completely inhibited
Rats [1]
  ED50: 3 mg/kg
[2]
  LD50 at 168 h: 5000 mg/kg
Mice [5]
  influence on motility: did not influence the motilities
Rats [4]; [7]
  Rearing (average): 11.8
  Triangle walked in (average): 16.1
  Washing (average): 3.3
Rats [4]; [8]
  Rearing (average): 21.5
  Triangle walked in (average): 14.5
  Washing (average): 0.6

## O=C(CCCN1CCC(O)(c2ccc(Cl)cc2)CC1)c1ccc(F)cc1 [Haloperidol, 4-(4-chlorophenyl/-4-hydroxy-piperidyl)-4'-fluoro-butyrophenone, reference compound]
Rats [1]
  ED50: 2.8 mg/kg
[2]
  LD50 at 168 h: 450 mg/kg

Reference: patent US4127576A, “Nortropine-carbazate derivatives” (Egyt Gyogyszervegyeszeti Gyar, priority 1976, dated 1978)
